Among the data in patent US4761414A, “Substituted 1H-pyrimido[1,2-a-]-pyrido[3,4-e]pyrazine 6 oxides” (G. D. Searle & Co., priority 1986, dated 1988) are MBC and MIC values, retold here.

≈ marks a conversion by molar mass, not a printed value.

As a reminder, the MBC is the lowest tested concentration that kills the bacteria rather than only halting them. High values mean less potent killing, low ones more potent killing.

Assay type in all cases: cell-based
Test [1] relates to B. fragilis NCTC 10581. The experiment in a line: MIC/MBC against Bacteroides fragilis strain A (96-well microtitre plates, anaerobic chamber). To be noted: Bacteroides fragilis; for MBC: NCTC10581, 99.9% reduction in viable count; for MIC: NCTC10581, 48 h, 48 hours, 37° C., anaerobic. The method, then: (§1) The screening panel utilized in this Example consisted of 5 strains of Bacteroides fragilis. All assays were carried out in 96-well microtitre plates. If an isolate was obtained from either a culture collection or clinical source, the isolate was immediately inoculated into Wilkens-Chalgren broth (Oxoid) and incubated at 37° C. in an anaerobic chamber in an atmosphere of 85% nitrogen, 10% carbon dioxide, and 5% hydrogen for 48 hours. At the end of this time, the viable count was about 10^12 organisms/ml broth. A 1 ml aliquot of each culture was placed in an ampoule and quick frozen in acetone-dry ice mixture and stored in liquid nitrogen. When an inoculum was utilized in an assay, one of the ampoules was thawed and diluted with fresh broth to yield a suspension having a count of 5×10^5 organisms/ml. A 100 μl aliquot of this suspension was inoculated into each well of the microtitre plate. A 2 mg sample of the test compound was dissolved in 0.2 ml of a suitable solvent such as dimethylsulfoxide, polyethylene glycol 200 or methanol. […] After addition of the test solution the final inoculum level was 10^5 cells/ml. The plates were incubated for 48 hours at 37° C. in the anaerobic chamber. The Minimum Inhibitory Concentration (MIC) was read visually. The MIC is defined as the lowest concentration at which there is no detectable growth. The Minimum Bactericidal Concentration (MBC) was determined by taking 50 μl aliquot from each well and placing it in fresh medium. […] The strains of Bacteroides fragilis utilized in the above procedure are identified by letter in accordance with the following legend: |A B. fragilis NCTC 10581

The subject of test [2] is Clostridium perfringens NCTC 8237. The experiment in a line: microbe, parasite or virus in culture. To be noted: procedures of Example 40.
Test [3] concerns Clostridium perfringens NCTC 523. The experiment in a line: microbe, parasite or virus in culture. To be noted: Clostridium perfringens, NCTC523, Clostridium perfringens NCTC 523; procedures of Example 40.
Test [4] deals with B. fragilis MZ-R ATCC 11295. Put plainly: MIC/MBC against Bacteroides fragilis strain D. To be noted: for MBC: ATCC11295, 99.9% reduction in viable count; for MIC: ATCC11295, 48 h, 48 hours, 37° C., anaerobic. The method, then:
The screening panel utilized in this Example consisted of 5 strains of Bacteroides fragilis. All assays were carried out in 96-well microtitre plates. If an isolate was obtained from either a culture collection or clinical source, the isolate was immediately inoculated into Wilkens-Chalgren broth (Oxoid) and incubated at 37° C. in an anaerobic chamber in an atmosphere of 85% nitrogen, 10% carbon dioxide, and 5% hydrogen for 48 hours. At the end of this time, the viable count was about 10^12 organisms/ml broth. A 1 ml aliquot of each culture was placed in an ampoule and quick frozen in acetone-dry ice mixture and stored in liquid nitrogen. When an inoculum was utilized in an assay, one of the ampoules was thawed and diluted with fresh broth to yield a suspension having a count of 5×10^5 organisms/ml. A 100 μl aliquot of this suspension was inoculated into each well of the microtitre plate. A 2 mg sample of the test compound was dissolved in 0.2 ml of a suitable solvent such as dimethylsulfoxide, polyethylene glycol 200 or methanol. […] After addition of the test solution the final inoculum level was 10^5 cells/ml. The plates were incubated for 48 hours at 37° C. in the anaerobic chamber. The Minimum Inhibitory Concentration (MIC) was read visually. The MIC is defined as the lowest concentration at which there is no detectable growth. The Minimum Bactericidal Concentration (MBC) was determined by taking 50 μl aliquot from each well and placing it in fresh medium.

Test [5] relates to B. fragilis NCTC 9343. Put plainly: MIC/MBC against Bacteroides fragilis strain B. To be noted: for MBC: NCTC9343, 99.9% reduction in viable count; for MIC: NCTC9343, 48 h, 48 hours, 37° C., anaerobic. The method, then: as §1, with “|B” for “|A”, “9343” for “10581”
Test [6] deals with B. fragilis WS-1. Put plainly: MIC/MBC against Bacteroides fragilis strain E. To be noted: for MBC: WS1, 99.9% reduction in viable count; for MIC: WS1, 48 h, 48 hours, 37° C., anaerobic. Here is the method: as §1, with “|E” for “|A”, “WS-1*” for “NCTC 10581”
Setting [7] is: Clostridium perfringens, NCTC8237, Clostridium perfringens NCTC 8237.

In the case of `CC1(C)CN=C2C(c3ccccc3)=[N+]([O-])c3ccncc3N2C1` [Example 14, 2,3-Dihydro-2,2-dimethyl-5-phenyl-1H-pyrimido[1,2-a]pyrido[4,3-e]pyrazine 6-oxide], the MBC in test [1] turned out to be 12.5 µg/mL (≈ 40.8 µM); in test [4] it was 3.1 µg/mL (≈ 10.1 µM); in test [5], 6.2 µg/mL (≈ 20.2 µM); in test [6] it was 3.1 µg/mL (≈ 10.1 µM). Also, the MIC in test [1] is 6.2 µg/mL (≈ 20.2 µM); in test [2] (setting [7]), 25 µg/mL (≈ 81.6 µM); in test [3], 25 µg/mL (≈ 81.6 µM); in test [4], 3.1 µg/mL (≈ 10.1 µM); in test [5], 3.1 µg/mL (≈ 10.1 µM); in test [6], 3.1 µg/mL (≈ 10.1 µM).

As to `CC1(C)CN=C2C(c3ccccc3)=[N+]([O-])c3cnccc3N2C1` [Example 15, 2,3-Dihydro-2,2-dimethyl-5-phenyl-1H-pyrimido[1,2-a]pyrido[3,4-e]pyrazine 6-oxide], the MBC was less than 0.8 µg/mL in test [1], 1.5 µg/mL (≈ 4.9 µM) in test [4], less than 0.8 µg/mL in test [5] and 1.5 µg/mL (≈ 4.9 µM) in test [6]. For the same compound, the MIC in test [1] was less than 0.8 µg/mL; in test [2] (setting [7]) it was 12.5 µg/mL (≈ 40.8 µM); in test [3], 1.5 µg/mL (≈ 4.9 µM); in test [4] it was less than 0.8 µg/mL; in test [5] it was less than 0.8 µg/mL; in test [6] it was less than 0.8 µg/mL.

Take `CC1(C)CN=C2C(c3ccccc3)=[N+]([O-])c3cccnc3N2C1` [Example 16, 2,3-Dihydro-2,2-dimethyl-5-phenyl-1H-pyrimido[1,2-a]pyrido[3,2-e]pyrazine 6-oxide]: the MBC worked out at 3.1 µg/mL (≈ 10.1 µM) in test [1], 1.5 µg/mL (≈ 4.9 µM) in test [4], 1.5 µg/mL (≈ 4.9 µM) in test [5] and 1.5 µg/mL (≈ 4.9 µM) in test [6]. Besides, the MIC in test [1] is 3.1 µg/mL (≈ 10.1 µM); in test [2] (Clostridium perfringens NCTC 8237), 12.5 µg/mL (≈ 40.8 µM); in test [3], less than 0.8 µg/mL; in test [4], less than 0.8 µg/mL; in test [5] it was 1.5 µg/mL (≈ 4.9 µM); in test [6], less than 0.8 µg/mL.

For `CC1(C)CN=C2C(c3ccc(Cl)cc3)=[N+]([O-])c3cnccc3N2C1` [Example 17, 2,3-Dihydro-5-(4-chlorophenyl)-2,2-dimethyl-1H-pyrimido[1,2-a]pyrido[3,4-e]pyrazine 6-oxide], the MBC in test [1] was less than 0.8 µg/mL; in test [4] it was less than 0.8 µg/mL; in test [5], 1.5 µg/mL (≈ 4.4 µM); in test [6] it was less than 0.8 µg/mL. For the same compound, the MIC is less than 0.8 µg/mL in test [1]; 6.2 µg/mL (≈ 18.2 µM) in test [2] (setting [7]); less than 0.8 µg/mL in test [3]; less than 0.8 µg/mL in test [4]; 1.5 µg/mL (≈ 4.4 µM) in test [5]; less than 0.8 µg/mL in test [6].

Regarding `COc1ccc(C2=[N+]([O-])c3cnccc3N3CC(C)(C)CN=C23)cc1OC` [Example 21], the MBC in test [1] was less than 0.8 µg/mL; in test [4], less than 0.8 µg/mL; in test [5], 1.5 µg/mL (≈ 4.09 µM); in test [6] it was less than 0.8 µg/mL. The MIC in test [1] is less than 0.8 µg/mL; in test [4] it was less than 0.8 µg/mL; in test [5] it was 1.5 µg/mL (≈ 4.09 µM); in test [6] it was less than 0.8 µg/mL.

Regarding `CCCC1(C)CN=C2C(c3ccccc3)=[N+]([O-])c3cnccc3N2C1` (stereo not drawn) [Example 27, 2,3-Dihydro-2-methyl-5-phenyl-2-propyl-1H-pyrimido[1,2-a]pyrido[3,4-e]pyrazine 6-oxide], the MBC in test [1] is 1.5 µg/mL (≈ 4.49 µM); in test [4], 1.5 µg/mL (≈ 4.49 µM); in test [5], less than 0.8 µg/mL; in test [6] it was 3.1 µg/mL (≈ 9.27 µM). In addition, the MIC was 1.5 µg/mL (≈ 4.49 µM) in test [1], 1.5 µg/mL (≈ 4.49 µM) in test [4], less than 0.8 µg/mL in test [5] and 1.5 µg/mL (≈ 4.49 µM) in test [6].

Take `CCCC1(C)CN=C2C(c3ccccc3)=[N+]([O-])c3cccnc3N2C1` (stereo not drawn) [Example 28, 2,3-Dihydro-2-methyl-5-phenyl-2-propyl-1H-pyrimido[1,2-a]pyrido[3,2-e]pyrazine 6-oxide]: the MBC is less than 0.8 µg/mL in test [1], less than 0.8 µg/mL in test [4], less than 0.8 µg/mL in test [5] and 1.5 µg/mL (≈ 4.49 µM) in test [6]. Moreover, the MIC in test [1], in test [4], in test [5] and in test [6] was less than 0.8 µg/mL each time.

`[O-][N+]1=C(c2ccccc2)C2=NCC3(CCCCC3)CN2c2ncccc21` [Example 29, Spiro[cyclohexane-1,2'-[2,3]-dihydro-[5]-phenyl-[1H]pyrimido[1,2-a]pyrido[3,2-e]pyrazine [6]-oxide]]: the MIC is 1.5 µg/mL (≈ 4.33 µM) in test [3], less than 0.8 µg/mL in test [4], less than 0.8 µg/mL in test [5] and less than 0.8 µg/mL in test [6]. Also, the MBC in test [4], in test [5] and in test [6] was less than 0.8 µg/mL in each case.

With `CC1(C)CN=C2C(c3ccc(F)cc3)=[N+]([O-])c3cnccc3N2C1` [Example 33, 2,3-Dihydro-2,2-dimethyl-5-(4-fluorophenyl)-1H-pyrimido[1,2-a]pyrido[3,4-e]pyrazine 6-oxide], the MBC in test [1], in test [4], in test [5] and in test [6] was less than 0.8 µg/mL throughout. In addition, the MIC in test [1], in test [4], in test [5] and in test [6] was less than 0.8 µg/mL each time.

`CC1CN=C2C(c3ccccc3)=[N+]([O-])c3cnccc3N2C1` (stereo not drawn) [Example 34, 2,3-Dihydro-2-methyl-5-phenyl-1H-pyrimido[1,2-a]pyrido[3,4-e]pyrazine 6-oxide]: the MBC in test [1], in test [4], in test [5] and in test [6] was less than 0.8 µg/mL throughout. For the same compound, the MIC in test [1], in test [4], in test [5] and in test [6] was less than 0.8 µg/mL in each case.
